Values joined by “and” are separate entries in the source; they are usually repeats but may differ in a detail not shown here. Identical values can stand only once.
System: eIF2-GTP-Met-tRNAi ternary complex
Test: Ternary complex assay (dual luciferase, firefly/renilla ratio) in stable KLN-tTA/pBISA-DL(ATF-4) cells; HTS and hit confirmation
Format: cell-based, mouse
Design: Activity 10 uM / Activity 2.5 uM / Activity 5 uM: unit not given here
Settings: confirmed hits of the screen (Table 5); for Activity 2.5 uM: compound at 2.5 uM; for Activity 10 uM: compound at 10 uM

O=C(O)Cc1ccc(O)c(O)c1.[Pt].c1ccc([PH+](c2ccccc2)c2ccccc2)cc1.c1ccc([PH+](c2ccccc2)c2ccccc2)cc1 [Compound 377376]
Activity 2.5 uM: 0.96 | Activity 10 uM: 5.14

CNCC(O)c1ccc(O)c(O)c1.[Pt].c1ccc([PH+](c2ccccc2)c2ccccc2)cc1.c1ccc([PH+](c2ccccc2)c2ccccc2)cc1 [Compound 377377]
Activity 2.5 uM: 0.77 | Activity 10 uM: 34.93

CC(C)NCC(O)c1ccc(O)c(O)c1.[Pt].c1ccc([PH+](c2ccccc2)c2ccccc2)cc1.c1ccc([PH+](c2ccccc2)c2ccccc2)cc1 [Compound 377378]
Activity 2.5 uM: 0.87 | Activity 10 uM: 21.49

Nc1ccccc1-c1nnc(-c2ccccc2)o1 [Compound 377831]
Activity 2.5 uM: 2.19 | Activity 10 uM: 3.79

COc1cc2c(cc1C[N+](C)(C)CSc1ccccc1)-c1ccccc1CC2.[Br-] [Compound 378135]
Activity 2.5 uM: 1.75 | Activity 10 uM: 3.15

Nc1ccccc1Nc1c([N+](=O)[O-])cc(C(F)(F)F)cc1[N+](=O)[O-] [Compound 379578]
Activity 2.5 uM: 0.61 | Activity 10 uM: 27.15

CC1(C)CN=C(NN=C(C=Cc2ccc(C(F)(F)F)cc2)C=Cc2ccc(C(F)(F)F)cc2)NC1 [Compound 379665]
Activity 2.5 uM: 1.08 | Activity 10 uM: 35.03

COC(=O)C1=C(C(=O)OC)C2(C)OC1c1ccccc12 (stereo not shown) [Compound 380207]
Activity 2.5 uM: 0.47 and 0.3615

c1ccc(-c2noc(-c3ccccc3)n2)cc1 [Compound 400077]
Activity 2.5 uM: 2.04 | Activity 10 uM: 3.14

CN(C)c1ccc(N=C2C=CC(=O)C=C2)cc1 [Compound 400538]
Activity 2.5 uM: 0.57 | Activity 10 uM: 6.8

Cc1cc(N=Nc2ccccc2C)c(N)cc1N [Compound 400939]
Activity 2.5 uM: 2.36 | Activity 10 uM: 3.56

CC1=CC(=Nc2ccc(N(C)C)cc2)C=CC1=O [Compound 401162]
Activity 2.5 uM: 0.3784 | Activity 10 uM: 7.084

c1ccc2c(O[Si](Oc3cccc4ccccc34)(Oc3cccc4ccccc34)Oc3cccc4ccccc34)cccc2c1 [Compound 401234]
Activity 2.5 uM: 1 | Activity 10 uM: 24.65

CCCCCCNc1nc(N2CCOCC2)c2[nH]c(NCCCCCC)nc2n1 [Compound 401304]
Activity 2.5 uM: 1.04 | Activity 10 uM: 43.11

Oc1c(Cl)cc(Cl)cc1Cc1cc(Cl)cc(Cl)c1O [Compound 402193]
Activity 2.5 uM: 0.56 | Activity 10 uM: 3.19

Br.CCCCCCCCCCCCNCCCc1ccccc1 [Compound 402291]
Activity 2.5 uM: 0.73 | Activity 10 uM: 4.43

Oc1ccc(N=Nc2ccc(Cl)cc2)cc1 [Compound 402592]
Activity 2.5 uM: 2.25 | Activity 10 uM: 3.48

O=C(Nc1ccccc1)c1cc(Cl)ccc1O [Compound 402600]
Activity 2.5 uM: 1.14 | Activity 10 uM: 4.82

O=C1C(=O)c2ccccc2-c2ccccc21.O=C1C(=O)c2ccccc2-c2ccccc21.[Hg] [Compound 402785]
Activity 2.5 uM: 50.88

CC(C)(C)c1ccc(C(=O)C[n+]2ccc(Cl)c3ccc(Cl)cc32)cc1.[Br-] [Compound 402826]
Activity 2.5 uM: 0.85 | Activity 10 uM: 5.42

Cc1ccc([As]=[As]c2ccc(C)cc2N)c(N)c1.Cl (stereo not shown) [Compound 402866]
Activity 2.5 uM: 1.66 | Activity 10 uM: 26.02

NS(=O)(=O)c1ccc(NC(=S)Nc2ccc(S(=O)(=O)Nc3nccs3)cc2)cc1 [Compound 403440]
Activity 2.5 uM: 1.41 | Activity 10 uM: 3.83

COC1OC(CI)C(OC(=O)c2ccccc2)C(OC(=O)c2ccccc2)C1OC(=O)c1ccccc1 (stereo not shown) [Compound 403488]
Activity 2.5 uM: 1.55 | Activity 10 uM: 4.41

CCOc1ccc2c(c1)/C(=C\C=C\C1CC(C)C3CC(OCC)CCC3N1CC)CC(C)N2CC (stereo not shown) [Compound 403534]
Activity 2.5 uM: 7.33 | Activity 10 uM: 9.9

Cc1ccc(NC(=O)c2ccc(Cl)cc2Cl)cc1 [Compound 405522]
Activity 2.5 uM: 2.47 | Activity 10 uM: 3.69

CCCCN=C(C)CC(=O)CC(=O)c1ccccc1 [Compound 406018]
Activity 2.5 uM: 1.51 | Activity 10 uM: 4.09

Cc1ccc(C23C=CC(c4ccccc4)(C2)C2C(=O)OC(=O)C23)cc1 (stereo not shown) [Compound 406824]
Activity 2.5 uM: 1.76 | Activity 10 uM: 4.25

F[B-](F)(F)F.c1ccc([P+](c2ccccc2)(c2ccccc2)c2ccccc2)cc1 [Compound 407396]
Activity 2.5 uM: 1.72 | Activity 10 uM: 4.74

CC(=O)Oc1cc2c(c3ccc4ccccc4c13)CCc1ccccc1-2 [Compound 407658]
Activity 2.5 uM: 1.57 | Activity 10 uM: 5.17

O=C1C=CC(=Nc2ccc3c(c2)Cc2cc(Br)ccc2-3)O1 [Compound 408380]
Activity 2.5 uM: 2.28 | Activity 10 uM: 4.36

O=C1C=CC(=O)N1c1ccc2c(c1)Cc1cc(NC(=O)C(F)(F)F)ccc1-2 [Compound 408383]
Activity 2.5 uM: 0.84 | Activity 10 uM: 10.77

CN(C)c1ccc(/C=C/c2nccc3ccccc23)cc1 [Compound 408399]
Activity 2.5 uM: 1.63 | Activity 10 uM: 3.42

Cc1cc2c(C(C)C)c(O)c(O)c(C=Nc3ccccc3[N+](=O)[O-])c2c(O)c1-c1c(C)cc2c(C(C)C)c(O)c(O)c(C=Nc3ccccc3[N+](=O)[O-])c2c1O [Compound 408711]
Activity 2.5 uM: 1.47 | Activity 10 uM: 21.88

Cc1cc2c(C(C)C)c(O)c(O)c(C=Nc3ccc([N+](=O)[O-])cc3)c2c(O)c1-c1c(C)cc2c(C(C)C)c(O)c(O)c(C=Nc3ccc([N+](=O)[O-])cc3)c2c1O [Compound 408712]
Activity 2.5 uM: 1.57 | Activity 10 uM: 21.65

Nc1ccc(O)c(-c2ccccc2)c1 [Compound 409777]
Activity 2.5 uM: 20.85 | Activity 10 uM: 5.55

C(=N\Nc1ccc2ccccc2n1)/c1ccccn1 [Compound 527347]
Activity 2.5 uM: 2.551 | Activity 10 uM: 5.591

CCN(CC)C1=C/CC/C(c2ccccc2)=N/N=C\1c1ccccc1 [Compound 601076]
Activity 2.5 uM: 2.48 | Activity 10 uM: 3.17

Cc1ccc2occ/c(=N\Nc3ccccc3)c2c1 [Compound 601994]
Activity 2.5 uM: 3.42 | Activity 10 uM: 5.21

O=Cc1c(-c2ccccc2)nc2sc(-c3ccc4c(c3)OCO4)nn12 [Compound 602807]
Activity 2.5 uM: 2.08 | Activity 10 uM: 3.12

C=C(CN1CCCC1)C(=O)c1ccc(OC)cc1.Cl [Compound 603554]
Activity 2.5 uM: 0.35 | Activity 10 uM: 8.45

CC(C)(C)C1=CC(=CC=C2C=CN(CCCCCCCCCCCO)C=C2)C=C(C(C)(C)C)C1=O [Compound 603854]
Activity 2.5 uM: 0.93 | Activity 10 uM: 4.19

Cl.NC[CH2][Sn]([c]1ccccc1)([CH]1CCCCC1)[CH]1CCCCC1 [Compound 604861]
Activity 2.5 uM: 0.8 | Activity 10 uM: 4.82

Cc1c2c(c(C)c3c1C(=O)c1cc4c(cc1C3=O)OCO4)OC(C)(C)O2 [Compound 604868]
Activity 2.5 uM: 0.86 | Activity 10 uM: 5.36

O=C(N/N=C/c1ccccc1O)c1ccccc1.[Cu+2] [Compound 607085]
Activity 2.5 uM: 2.21 | Activity 10 uM: 3.55

CN(C)c1ccc(N=Nc2cccc(C(=O)[O-])c2)cc1.CN(C)c1ccc(N=Nc2cccc(C(=O)[O-])c2)cc1.NC1CCCCC1N.O=[N+]([O-])O.[Pt+4] [Compound 608144]
Activity 2.5 uM: 3.82 | Activity 10 uM: 112.47

C(=N\Nc1ccc2ccccc2n1)/c1ccccn1.CC(=O)[O-].CC(=O)[O-].[Zn+2] [Compound 609211]
Activity 2.5 uM: 5.68 | Activity 10 uM: 18.74

Cn1cc(/C=C/C(=O)c2ccccc2[N+](=O)[O-])c2ccccc21 [Compound 609810]
Activity 2.5 uM: 2.44 | Activity 10 uM: 4.69

O=C(N/N=C/c1ccccc1[O-])c1ccccc1O.O=C(N/N=C/c1ccccc1[O-])c1ccccc1O.[Mn+2] [Compound 610051]
Activity 2.5 uM: 1.52 | Activity 10 uM: 9.23

COC(=O)C1CCC(/C(C#N)=C2/CCC(C(=O)OC)[N-]2)=N1.COC(=O)C1CCC(/C(C#N)=C2/CCC(C(=O)OC)[N-]2)=N1.[Cu+2] (stereo not shown) [Compound 617738]
Activity 2.5 uM: 1.05 | Activity 10 uM: 7.65

CN1C/C(=C\c2ccccc2)C(=O)/C(=C/c2ccccc2)C1.Cl [Compound 618767]
Activity 2.5 uM: 0.7 | Activity 10 uM: 6.58

[Cl][Sn]([CH2][CH2][Sn]([Cl])([c]1ccccc1)[c]1ccccc1)([c]1ccccc1)[c]1ccccc1 [Compound 620291]
Activity 2.5 uM: 8.39 | Activity 10 uM: 9.07

CCC[CH2][Sn]([Cl])([CH2]CCC)[S]/C(C#N)=N/N=C/c1ccc(N(C)C)cc1 [Compound 620296]
Activity 2.5 uM: 5.24 | Activity 10 uM: 3.13

C[n+]1[se]nc2ccccc21.Cc1ccc(S(=O)(=O)[O-])cc1 [Compound 620852]
Activity 2.5 uM: 4.79 | Activity 10 uM: 16.94

Cc1c(C(=O)/C=C/c2ccccc2[N+](=O)[O-])[n+](=O)c2ccccc2n1[O-] [Compound 621482]
Activity 2.5 uM: 1.17 | Activity 10 uM: 5.15

Cc1cc2c(cc1C)[n+]([O-])c(-c1nc3ccccc3s1)c(N)[n+]2[O-] [Compound 621504]
Activity 2.5 uM: 14.68

COc1ccccc1NC(=S)N/N=C\c1cc(N=Nc2ccccc2)cc(OC)c1O [Compound 621792]
Activity 2.5 uM: 1.27 | Activity 10 uM: 3.75

COc1cc(N=Nc2ccccc2)cc(/C=N/NC(=S)Nc2ccccc2)c1[O-].COc1cc(N=Nc2ccccc2)cc(/C=N/NC(=S)Nc2ccccc2)c1[O-].[Cu+2] [Compound 621794]
Activity 2.5 uM: 9.24 | Activity 10 uM: 6.6

CSC(=Nc1ccccc1)/N=C(\SCc1ccccc1)N(C)C.I [Compound 622579]
Activity 10 uM: 6.29 and 10.08

CN(C)C1=NC2=S(SC(Nc3ccccc3)=N2)S1 (stereo not shown) [Compound 622683]
Activity 2.5 uM: 2.84 | Activity 10 uM: 3.82

BrC(Br)=C1C(=C(Br)Br)C(Br)C1Br (stereo not shown) [Compound 624851]
Activity 2.5 uM: 12.65

From patent US9932300B2, “N,N′-diarylurea compounds and N,N′-diarylthiourea compounds as inhibitors of translation initiation” (President and Fellows of Harvard College, priority 2009, dated 2018)
